Assay results as given in the supplement of paper PMC10290057.
Counter-ions that a name gives are not always drawn.

Tested on: HCT116
Test: efficacy (fitted maximal change in viability relative to DMSO control); higher = less cytotoxic (negative = loss of viability)
Conditions: 48 h
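Further: Luminescence-based viability readout, five doses per compound, normalized against on-plate DMSO and empty-well controls, followed by dose-response curve fitting for every drug.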

## O=C(Nc1cccc(C(F)(F)F)c1)c1cccc2cc(Oc3cc(CO)ncn3)ccc12 [BFH-772]
  efficacy: 15.5%

## CN1CCCN=C1/C=C/c1cccs1 [PYRANTEL PAMOATE]
  efficacy: -47%

## COc1cc2c(cc1OC)C1CC(=O)C(CC(C)C)CN1CC2 (stereo unspecified) [Tetrabenazine]
  efficacy: -45.5%

## N[S+]([O-])(=O)C1=C(Cl)C=C2\N=C/N[S+]([O-])(=O)C2=C1 [Chlorothiazide]
  efficacy: -4.38%

## CC1=CC/2=C(C=C1C)N(C[C@@H](O)[C@@H](O)[C@@H](O)CO)C/3=N/C(=O)NC(=O)C3=N2 [Riboflavin]
  efficacy: -9.8%

## Clc1cc2c(NC3CCCC3)nnc(-c3ccncc3)c2cc1Cl [A-196]
  efficacy: 14.4%

## CC1=CC(=C(O)C(=C1C\C2=N\CCN2)C)C(C)(C)C [Oxymetazoline hydrochloride]
  efficacy: -19.1%

## CC(C)(C)NCC(O)c1ccc(O)c(CO)c1 (stereo unspecified) [Salbutamol sulfate]
  efficacy: -14.1%

## NC\1=N\C(=O)N(\C=C1)[C@@H]2CS[C@H](CO)O2 [Lamivudine]
  efficacy: -6.75%

## CC(=O)O[C@H]1C[C@@H]2CC[C@@H]3[C@H](CC[C@@]4(C)[C@H]3C[C@H]([N+]3(C)CCCCC3)[C@@H]4OC(C)=O)[C@@]2(C)C[C@@H]1N1CCCCC1.[Br-] [Vecuronium bromide]
  efficacy: -10.9%

## c1cc(-c2sc(-c3ccncc3)c(-c3ccncc3)c2-c2ccncc2)ccn1
  efficacy: -13.8%

## O=C(Nc1ccc2c(c1)CCN(Cc1ncn[nH]1)C2)c1ccccc1-c1ccc(C(F)(F)F)cc1
  efficacy: 17.5%

## CC1(C)CC(=O)c2c(C(F)(F)F)nn(-c3ccc(C(N)=O)c(NC4CCC(OC(=O)CN)CC4)c3)c2C1 (stereo unspecified) [SNX-5422]
  efficacy: -57.9%

## CC(C)[C@H]1C(=O)N[C@H](CO)Cc2c[nH]c3cccc(c23)N1C [(-)-Indolactam V]
  efficacy: 9.83%

## COC1CCC(C(=O)c2ccc3nc4c(cc3c2)CCCO4)CC1 (stereo unspecified)
  efficacy: -17.2%

## CNC1CCCN(C1)C2=C(F)C=C3C(=O)\C(=C/N(C4CC4)C3=C2OC)C(O)=O (stereo unspecified) [Balofloxacin]
  efficacy: -10.2%

## CCC(C)N1\N=C/N(C1=O)C2=CC=C(C=C2)N3CCN(CC3)C4=CC=C(OC[C@H]5CO[C@@](C[N]6C=NC=N6)(O5)C7=CC=C(Cl)C=C7Cl)C=C4 (stereo partly specified) [Itraconazole]
  efficacy: -32.6%

## O=C(CCc1ccc(O)cc1)c1c(O)cc(O)cc1O[C@@H]1O[C@H](CO)[C@@H](O)[C@H](O)[C@H]1O [Phlorizin]
  efficacy: -28.6%

## O=C(O)CCNC(=O)c1ccc(/N=N/c2ccc(O)c(C(=O)O)c2)cc1 [Balsalazide disodium]
  efficacy: -11.7%

## COC/1=C(\CNC(=O)C2=C(C)[N]([C@H](C)C3CCN(CC3)CC(F)(F)F)C4=C2C=CC=C4)C(=O)N/C(=C1)C [CPI-1205]
  efficacy: -27.1%

## O=C1\C=C(/OC2=C1C=CC=C2C3=CC=CC=C3)N4CCOCC4
  efficacy: -24.3%

## CC(C)C[C@@H]1NC(=O)[C@@H](C(C)C)NC(=O)[C@@H]2CCCN2C(=O)[C@@H](CC(=O)O)NC(=O)[C@@H](Cc2c[nH]c3ccccc23)NC1=O [BQ-123]
  efficacy: -9.37%

## CSCC[C@@H](NC(=O)[C@@H](Cc1ccccc1)NC(=O)CNC(=O)CNC(=O)[C@@H](N)Cc1ccc(O)cc1)C(=O)O [Metenkephalin]
  efficacy: -81.4%

## c1coc(CNc2ncnc3nc[nH]c23)c1 [Kinetin]
  efficacy: -22.2%

## COc1cc(C(C)C)c(Oc2cnc(NC(CO)CO)nc2N)cc1I [Ro-51]
  efficacy: 7.2%

## O=C(C1CCCCC1)N1CC(=O)N2CCc3ccccc3C2C1 (stereo unspecified) [Praziquantel]
  efficacy: -15.9%

## CC(C)Oc1ccc2c(=O)c(-c3ccccc3)coc2c1 [Ipriflavone]
  efficacy: -27.7%

## Nc1ncnc2ccccc12 [4-Quinazolinamine]
  efficacy: -11.9%

## O=C1CC(c2c[nH]c3ccc(F)cc23)C(=O)N1 (stereo unspecified)
  efficacy: -7.69%

## COc1c(C)cc(NC(=O)c2nn(Cc3ccc(F)cc3)c3c2CN(C(=O)c2ccc[nH]2)C[C@]3(C)C(N)=O)cc1C [GSK-864]
  efficacy: -35.1%

## CCOC(=O)Nc1ccc(NCc2ccc(F)cc2)cc1N [Retigabine]
  efficacy: -11.8%

## O=[S+]([O-])(O)c1ccc2cc(/N=N/c3cc([S+](=O)([O-])O)c4cccnc4c3O)ccc2c1
  efficacy: -23.5%

## CC1(C)[C@@H](O[C@H]2O[C@H](C(=O)O)[C@@H](O)[C@H](O)[C@H]2O[C@@H]2O[C@H](C(=O)O)[C@@H](O)[C@H](O)[C@H]2O)CC[C@]2(C)[C@H]3C(=O)C=C4[C@@H]5C[C@@](C)(C(=O)O)CC[C@]5(C)CC[C@@]4(C)[C@]3(C)CC[C@@H]12 [Ammonium Glycyrrhizinate]
  efficacy: 7.39%

## CCN1CCN(C(=O)N[C@@H](C(=O)N[C@H]2[C@H]3SC\C(=C(/N3C2=O)C(O)=O)CSC4=NN=N[N]4C)C5=CC=C(O)C=C5)C(=O)C1=O [Cefoperazone (sodium salt)]
  efficacy: -15.8%

## OC1=CC=C(C=C1)\C2=C\C(=O)C3=C(O2)C=C(O)C=C3O [Apigenin]
  efficacy: -82%

## CC#C[C@]1(O)CC[C@H]2[C@@H]/3CCC/4=C/C(=O)CCC4=C3[C@H](C[C@]12C)C5=CC=C(C=C5)N(C)C [Mifepristone]
  efficacy: -73.4%

## CN1C(=O)N[C@H](Cc2c[nH]c3c(Cl)cccc23)C1=O [Necrostatin 2]
  efficacy: 15%

## Cc1c(Cn2c(C)nc3c(C(=O)O)cc(N4CCOCC4)cc32)cccc1C(F)(F)F
  efficacy: -10.9%

## CC(O)(C[S+](=O)([O-])c1ccc(F)cc1)C(=O)Nc1ccc(C#N)c(C(F)(F)F)c1 (stereo unspecified) [Bicalutamide]
  efficacy: -14.2%

## C[N]1N=CC=C1C/2=C(\C)N(C(=O)C(=C2)/C(=O)NCC3=NC=C(C=C3)[S+](C)([O-])=O)C4=CC=CC(=C4)C(F)(F)F [AZD9668]
  efficacy: 12.5%

## CCOCc1nc2c(N)nc3ccccc3c2n1CC(C)(C)O [Resiquimod]
  efficacy: -14.3%

## C[C@H](CCC(=O)O)[C@H]1CC[C@H]2[C@@H]3[C@H](O)C[C@@H]4C[C@H](O)CC[C@]4(C)[C@H]3CC[C@]12C [Chenodeoxycholic acid]
  efficacy: -16%

## Nc1nccc(-c2ccc3noc(-c4ccc(Cl)cc4)c3c2)n1 [Pim 1 Inhibitor 2]
  efficacy: -55%

## CN1CCC(=C2c3ccccc3CC(=O)c3sccc32)CC1 [Ketotifen]
  efficacy: -39.1%

## Nc1ncnc2c1C(=O)N(c1ccc([C@H]3CC[C@H](CC(=O)O)CC3)cc1)CCO2
  efficacy: -5.95%

## COc1ccc(CNC(=O)c2cc(-c3cncc(Cl)c3)cnc2-c2ccccn2)nc1OC [MK-1064]
  efficacy: 12.4%

## O=C(O)CC/C=C\CC[C@@H]1[C@@H](N2CCCCC2)[C@@H](O)C[C@@H]1OCc1ccc(-c2ccccc2)cc1 [Vapiprost hydrochloride]
  efficacy: -23.2%

## COc1cc(OC)c(NC(=O)Nc2cc(C)on2)cc1Cl
  efficacy: -7.13%

## COc1cc2ncnc(Nc3ccc(F)c(Cl)c3)c2cc1OCCCN1CCOCC1 [Gefitinib]
  efficacy: -15.4%

## COc1cc(F)c(C(C)C)cc1-c1ccc(C(F)(F)F)cc1CN1C(=O)O[C@H](c2cc(C(F)(F)F)cc(C(F)(F)F)c2)[C@@H]1C [Anacetrapib]
  efficacy: -14.3%

## COCc1c(-c2ccc(NC(=O)Nc3cc(C(F)(F)F)ccc3F)c(F)c2)c2c(N)ncnn2c1CN1CCOCC1 [ACTB-1003]
  efficacy: -76%

## Cc1ccc(NC(=O)[C@H]2CCCN(C(=O)c3c(C)cccc3F)[C@H]2c2ccc(NC3CCCC3)cc2)cc1C(F)(F)F [Avacopan]
  efficacy: -27.6%

## CC(C)(C)C(=O)CN1C(=O)[C@H](NC(=O)Nc2cccc(C(=O)O)c2)CN(C2CCCCC2)c2ccccc21 [Nastorazepide]
  efficacy: -4.67%

## CC(C)OC(=O)C(C)(C)Oc1ccc(C(=O)c2ccc(Cl)cc2)cc1 [Fenofibrate]
  efficacy: -34.6%

## c1ccc(-c2nn3c(c2-c2ccnc4cc(OCCN5CCOCC5)ccc24)CCC3)nc1
  efficacy: -41.1%

## O=C(O)c1ccc(CN2CCC(CN[C@@H]3C[C@H]3c3ccccc3)CC2)cc1
  efficacy: -14.1%

## C[N]1N=CN=C1[C@@H]2[C@H](NC3=CC(=CC4=C3\C2=N/NC4=O)F)C5=CC=C(F)C=C5 [BMN-673]
  efficacy: -16.8%

## C/C(=C\c1csc(C)n1)[C@@H]1C[C@@H]2O[C@@H]2CCC[C@H](C)[C@H](O)[C@@H](C)C(=O)C(C)(C)[C@@H](O)CC(=O)O1 [Epothilone A]
  efficacy: -68.2%

## O=C(O)c1ccc(-c2c[nH]c3ncc(-c4ccccc4)cc23)cc1C1CCCC1
  efficacy: -22.5%

## CC(C)(C)c1cc(C(=O)O)c(NC(=O)Nc2ccc3[nH]ncc3c2)s1 [S6K-18]
  efficacy: -16.6%

## CC1COC2=C3N1\C=C(C(O)=O)/C(=O)C3=CC(=C2N4CCN(C)CC4)F (stereo unspecified) [Ofloxacin]
  efficacy: -9.68%

## O=c1cc(O)c(Cl)c[nH]1 [Gimeracil]
  efficacy: -6.4%

## O=C(Oc1ccc([N+](=O)[O-])cc1)N1CCN(Cc2cccc(Oc3ccccc3)c2)CC1 [JZL-195]
  efficacy: -38.1%

## O=C1[C@H](CC[C@H](O)c2ccc(F)cc2)[C@@H](c2ccc(O)cc2)N1c1ccc(F)cc1 [Ezetimibe]
  efficacy: -48.2%

## CC(C)(N[S+](=O)([O-])c1ccc2c(Cl)cnc(NC(=N)N)c2c1)C(=O)O
  efficacy: -7.17%

## COc1cccc2c1C(=O)c1c(O)c3c(c(O)c1C2=O)C[C@@](O)(C(C)=O)C[C@@H]3O[C@H]1C[C@H](N)[C@H](O)[C@H](C)O1 [Daunorubicin]
  efficacy: -77.4%

## CC(C)(C)c1nc(-c2cccc(N[S+](=O)([O-])c3c(F)cccc3F)c2F)c(-c2ccnc(N)n2)s1 [Dabrafenib]
  efficacy: -29.3%

## O=C1c2c(O)cc(O)cc2O[C@H](c2ccc(O)c(O)c2)[C@H]1O [(▒)-Taxifolin]
  efficacy: 4.75%

## CO[C@@]12[C@H](COC(N)=O)C/3=C(N1C[C@@H]4N[C@H]24)/C(=O)/C(=C(N)\C3=O)C [Mitomycin C]
  efficacy: -11.2%

## OC(=O)CNC(=O)\C1=C(/O)C2=CC=CC=C2N(CC3=CC=CC=C3)C1=O [IOX2]
  efficacy: 9.68%

## CC[C@H]1OC(=O)[C@H](C)[C@@H](O[C@H]2C[C@@](C)(OC)[C@@H](O)[C@H](C)O2)[C@H](C)[C@@H](O[C@@H]2O[C@H](C)C[C@H](N(C)C)[C@H]2O)[C@](C)(O)C[C@@H](C)CN(C)[C@H](C)[C@@H](O)[C@]1(C)O [Azithromycin]
  efficacy: -20.7%
